Minimal effective concentration data for five molecules are collected here from US11331369B2, “Endoparasitic depsipeptides” (Zoetis Services LLC, priority 2017, dated 2022).

Assay [1] relates to microfilariae of Dirofilaria immitis. Description: Dirofilaria immitis, Microfilaria (DiMF) In vitro Assay. It counts as cell-based. To be noted: 72 h, read-out: DiMF Minimum Effective Dose (MED), approximately 72 hours incubation, microfilariae assessed for survival or paralysis.
The test system of assay [2] is third stage larvae of Haemonchus contortus. The assay is described as follows: Haemonchus contortus L3 (HcL3) Assay. The assay is classed as cell-based. To be noted: 96 h, read-out: HcL3 Minimum Effective Dose (MED).

As to `CC(C)C[C@H]1C(=O)O[C@H](Cc2ccc(Cn3nc(C4CC4)c(N)c3C3CC3)cc2)C(=O)N(C)[C@@H](CC(C)C)C(=O)O[C@H](C)C(=O)N(C)[C@@H](CC(C)C)C(=O)O[C@H](Cc2ccc(Cn3nc(C4CC4)c(N)c3C3CC3)cc2)C(=O)N(C)[C@@H](CC(C)C)C(=O)O[C@H](C)C(=O)N1C` [Example 1b-145, (3S,6R,9S,12R,15S,18R,21S,24R)-6,18-bis(4-((4-amino-3,5-dicyclopropyl-1H-pyrazol-1-yl)methyl)benzyl)-3,9,15,21-tetraisobutyl-4,10,12,16,22,24-hexamethyl-1,7,13,19-tetraoxa-4,10,16,22-tetraazacyclotetracosan-2,5,8,11,14,17,20,23-octaone], the minimal effective concentration in assay [1] is 0.001 to 0.01 µM; in assay [2] it was 1 to 10 µM.

As to `Cc1ccn(Cc2ccc(C[C@H]3OC(=O)[C@H](CC(C)C)N(C)C(=O)[C@@H](C)OC(=O)[C@H](CC(C)C)N(C)C(=O)[C@@H](Cc4ccc(Cn5ccc(C)n5)cc4)OC(=O)[C@H](CC(C)C)N(C)C(=O)[C@@H](C)OC(=O)[C@H](CC(C)C)N(C)C3=O)cc2)n1` [Example 1b-94, (3S,6R,9S,12R,15S,18R,21S,24R)-3,9,15,21-tetraisobutyl-4,6,10,16,18,22-hexamethyl-12,24-bis(4-((3-methyl-1H-pyrazol-1-yl)methyl)benzyl)-1,7,13,19-tetraoxa-4,10,16,22-tetraazacyclotetracosan-2,5,8,11,14,17,20,23-octaone], the minimal effective concentration is 0.001 to 0.01 µM in assay [1] and no more than 1 µM in assay [2].

In the case of `CC(C)C[C@H]1C(=O)O[C@H](Cc2ccc(Cn3ccc(C4CC4)n3)cc2)C(=O)N(C)[C@@H](CC(C)C)C(=O)O[C@H](C)C(=O)N(C)[C@@H](CC(C)C)C(=O)O[C@H](Cc2ccccc2)C(=O)N(C)[C@@H](CC(C)C)C(=O)O[C@H](C)C(=O)N1C` [Example 2-74, (3S,6R,9S,12R,15S,18R,21S,24R)-6-benzyl-18-(4-((3-cyclopropyl-1H-pyrazol-1-yl)methyl)benzyl)-3,9,15,21-tetraisobutyl-4,10,12,16,22,24-hexamethyl-1,7,13,19-tetraoxa-4,10,16,22-tetraazacyclotetracosan-2,5,8,11,14,17,20,23-octaone], the minimal effective concentration was 0.001 to 0.01 µM in assay [1] and 1 to 10 µM in assay [2].

Consider `CC(C)C[C@H]1C(=O)O[C@H](Cc2ccc(Cn3ccnn3)cc2)C(=O)N(C)[C@@H](CC(C)C)C(=O)O[C@H](C)C(=O)N(C)[C@@H](CC(C)C)C(=O)O[C@H](Cc2ccc(Cn3ccnn3)cc2)C(=O)N(C)[C@@H](CC(C)C)C(=O)O[C@H](C)C(=O)N1C` [Example 9-6, (3S,6R,9S,12R,15S,18R,21S,24R)-6,18-bis(4-((1H-1,2,3-triazol-1-yl)methyl)benzyl)-3,9,15,21-tetraisobutyl-4,10,12,16,22,24-hexamethyl-1,7,13,19-tetraoxa-4,10,16,22-tetraazacyclotetracosan-2,5,8,11,14,17,20,23-octaone], for which the results for the minimal effective concentration in assay [1] and in assay [2] were 0.001 to 0.01 µM and 1 to 10 µM, respectively.

Take `CC(C)C[C@H]1C(=O)O[C@H](Cc2ccc(CN3CCOC3=O)cc2)C(=O)N(C)[C@@H](CC(C)C)C(=O)O[C@H](C)C(=O)N(C)[C@@H](CC(C)C)C(=O)O[C@H](Cc2ccccc2)C(=O)N(C)[C@@H](CC(C)C)C(=O)O[C@H](C)C(=O)N1C` [Example 10-18, (3S,6R,9S,12R,15S,18R,21S,24R)-6-benzyl-3,9,15,21-tetraisobutyl-4,10,12,16,22,24-hexamethyl-18-(4-((2-oxooxazolidin-3-yl)methyl)benzyl)-1,7,13,19-tetraoxa-4,10,16,22-tetraazacyclotetracosan-2,5,8,11,14,17,20,23-octaone]: the minimal effective concentration in assay [1] was 0.01 to 0.1 µM; in assay [2] it was 1 to 10 µM.
